# Reference: US20250090545A1, “METHODS AND COMPOSITIONS FOR TREATMENT OF PERIPHERAL NEUROPATHIES” (UNIVERSITY OF MANITOBA, priority 2013, published 2025)
# Entries after “also recorded” stand apart in the source; their conditions may differ.
# B1: MT7: 64-66 amino acid protein derived from the African green mamba snake; most specific antagonist of the M1 receptor (protein, UniProt Q8QGR0 22-86, looked up)
# Muscarinic toxin 7: LTCVKSNSIWFPTSEDCPDGQNLCFKRWQYISPRMYDFTRGCAATCPKAEYRDVINCCGTDKCNK
# Columns and labels:
# PGC-1α = PGC-1α transcriptional activity, luciferase reporter in adult sensory neurons; assay type: cell-based, rat
# Experimental: PGC-1α transcriptional activity was determined in dissociated adult sensory neurons derived from STZ-induced diabetic rats by transfection for two days with luciferase-based reporter plasmids by following the methods taught in the AMAXA® NUCLEOFECTOR® II Manual (www.amaxa.com; AMAX and NUCLEOFECTOR are registered trademarks of Amaxa GmBH Corp., Koln, Fed. Rep. Germany) and by Saleh et al. (2013, Ciliary neurotrophic factor activates NF-κB to enhance mitochondrial bioenergetics and prevent neuropathy in sensory neurons of streptozotocin-induced diabetic rodents. Neuropharmacology 65:65-75) (the luciferase-based reporter plasmids were a gift from Dr. Michael Czubryt, University of Manitoba).
# [1] = tested on: AMP-activated protein kinase (AMPK); test: AMPK phosphorylation (Western blot) in cultured adult sensory neurons; assay type: cell-based, rat; settings: neurons from age-matched control rats
# Experimental: Subsets of cultured adult sensory neurons derived from age-matched control rats or 3-5 month STZ-induced diabetic rats were treated with a 1.0 μM pirenzepine-HCl dosage. The first subset was processed immediately while the second, third and fourth subsets of the neurons from the control rats and the diabetic rats were processed after 15 min, after 30 min, and after 60 min respectively following treatment with pirenzepine. The cell cultures were lysed and then used to prepare Western blots which were then probed with antibodies against phosphorylated AMPK (P-AMPK), total AMPK (T-AMPK) and total ERK (T-ERK). […] Values are means±SEM, N=3/group. Statistical significance was analyzed using one-way ANOVA with Tukey's post-hoc test.
# [2] = tested on: cultured adult rat sensory neurons; test: Total neurite outgrowth in cultured adult sensory neurons; assay type: cell-based; settings: for total neurite outgrowth: cultured adult sensory neurons from normal adult rodents
# Excerpt: The fundamental hypothesis is that blocking endogenous cholinergic constraint using a muscarinic receptor antagonist will promote re-growth of neurons in patients with established peripheral neuropathy. This occurs via activation of AMPK and PGC-1α and the subsequent augmentation of mitochondrial function. This pathway comprises a proximal step involving M1 receptor antagonist-dependent activation of CaMKKβ (or CaMKK2). This hypothesis is supported by extensive preclinical data using in vitro and in vivo model systems. […] A specific requirement for M1 receptor antagonism is confirmed by the increased neurite outgrowth from sensory neurons derived from M1R KO mice.
# The highly specific M1 receptor antagonist, MT7 (muscarinic toxin 7), enhanced neurite outgrowth in cultured adult rat sensory neurons (FIGS. 9(A), 9(B), 10). The data in FIG. 10 are means±SEM of 9 replicate cultures. Significant differences were determined by one-way ANOVA with Dunnett's post-hoc test.
# [3] = tested on: STZ-induced diabetic Swiss Webster mice; test: Topical atropine (eye or paw) in STZ-induced diabetic Swiss Webster mice; assay type: in vivo, mouse; settings: 5 days/wk, 12 weeks
# Experimental: Groups of adult Swiss Webster mice were made diabetic with STZ and then treated 5 days/wk with atropine delivered topically to one eye (2% solution) or topically to one paw (2% gel) for 12 weeks. Measurements were made on both the treated and untreated hind paw. Indices of large motor fiber function (MNCV; FIG. 21) and sensory sensory fiber function (paw thermal latency; FIG. 22) were measured and compared to those of age-matched control mice that were treated in an equivalent manner. […] The data shown in FIGS. 21 and 22 are group means±SEM with N=6-10/group. Significant differences were determined by unpaired t-test to compare control and diabetic animals under each condition (vehicle, atropine to the eye, atropine to the foot).
# [4] = tested on: adult sensory neurons from normal rats; test: Neurite outgrowth of sensory neurons exposed to paclitaxel or oxaliplatin; assay type: cell-based, rat; settings: 24 hours; paclitaxel 0.1 or 0.3 μM, oxaliplatin 3.0 μM
# Experimental: Adult sensory neurons from normal rats were cultured for 24 hours in the presence of(A) paclitaxel (PX; 0.1 μM or 0.3 μM), or (B) oxaliplatin (OX; 3.0 μM). From time of plating some cultures were treated with 0.1, 1.0 or 10 μM pirenzepine (PZ). Levels of total neurite outgrowth were determined and presented as means±SEM, N=6-8/group. Significant differences were assessed in(A) by t-test, and in(B) by one-way ANOVA with Dunnett's post-hoc test.
# db/db mice = test: Topical oxybutynin in db/db mouse model of type 2 diabetes; assay type: in vivo
# Experimental: The muscarinic receptor antagonist oxybutynin was tested for efficacy against a functional measure of sensory neuropathy in the db/db mouse model of type 2 diabetes (FIG. 15). Thermal latency was analyzed as taught by Calcutt et al. (2004, Prevention of sensory disorders in diabetic Sprague-Dawley rats by aldose reductase inhibition or treatment with ciliary neurotrophic factor. Diabetologia 47:718-24). […] Some diabetic mice were then treated with oxybutynin (Oxy: 2% in hydrogel) applied to the right paw for 20 min/day 5 days a week, while others were treated with hydrogel vehicle alone. […] Data are group mean±SEM of N=8-9/group.
# IENF levels were quantified as taught by Beiswenger et al. (2008, Epidermal nerve fiber quantification in the assessment of diabetic neuropathy. Acta Histochem. 110:351-63). The data shown in FIG. 16(A) are group mean±SEM of N=6-8/group. Significant differences were determined with a oneway ANOVA followed by Dunnett's post-hoc test. […] After 8 weeks of topical oxybutynin treatment, the eyes were assessed using corneal confocal microscopy as taught by Chen et al. (2013, Repeated monitoring of corneal nerves by confocal microscopy as an index of peripheral neuropathy in type-1 diabetic rodents and the effects of topical insulin. J. Periph. Nerv. Syst. 18;306-315).
# [5] = tested on: STZ-induced diabetic Swiss Webster mice; test: Systemic oxybutynin in STZ-induced diabetic Swiss Webster mice, thermal hypoalgesia; assay type: in vivo, mouse; settings: 9 weeks after 8 weeks of untreated diabetes
# adult Swiss Webster mice = test: Corneal nerve occupancy by confocal microscopy in normal mice given MT7 eye drops; assay type: in vivo, mouse; settings: daily eye drops; day 11 vs day 2, p<0.05
# Experimental: To further extend our investigation of the actions of muscarinic receptor antagonists on nerve growth, we treated normal mice with the M1 receptor-specific antagonist MT7 by daily delivery to the eyes for 11 days and used confocal microscopy to provide a non-invasive and therefore iterative assessment of corneal nerve density.
# A group (n=8) of adult Swiss Webster mice received daily treatment with MT7, which was given by eye drops (20 μl volume) in saline. Nerve occupancies in the sub-basal nerve plexus (SBNP 1-5) and upper stromal (Stroma 1-10) regions of the cornea were measured on day 2 and day 11 of treatment (FIG. 23). […] Data are group means (N=8)±SEM.
# [6] = tested on: cultured adult rat sensory neurons; assay type: cell-based; settings: gp120 24 hours; not shown
# Experimental: To further extend our investigation of the actions of muscarinic receptor antagonists on nerve growth, cultured adult rat sensory neurons were treated for 24 hours with recombinant gp120, an external coat protein of HIV that causes toxicity to sensory neurons in HIV neuropathy (FIG. 24). This toxicity leads to axon degeneration and neuronal cell death. Cultures were treated with 1 μM pirenzpeine and total neurite outgrowth determined. […] Values are means±SEM. n=6.
# M1 receptor = biological target: T1, M1 receptor (Homo sapiens, UniProt P11229); settings: cited from earlier work
# T1 sequence (P11229 1-460): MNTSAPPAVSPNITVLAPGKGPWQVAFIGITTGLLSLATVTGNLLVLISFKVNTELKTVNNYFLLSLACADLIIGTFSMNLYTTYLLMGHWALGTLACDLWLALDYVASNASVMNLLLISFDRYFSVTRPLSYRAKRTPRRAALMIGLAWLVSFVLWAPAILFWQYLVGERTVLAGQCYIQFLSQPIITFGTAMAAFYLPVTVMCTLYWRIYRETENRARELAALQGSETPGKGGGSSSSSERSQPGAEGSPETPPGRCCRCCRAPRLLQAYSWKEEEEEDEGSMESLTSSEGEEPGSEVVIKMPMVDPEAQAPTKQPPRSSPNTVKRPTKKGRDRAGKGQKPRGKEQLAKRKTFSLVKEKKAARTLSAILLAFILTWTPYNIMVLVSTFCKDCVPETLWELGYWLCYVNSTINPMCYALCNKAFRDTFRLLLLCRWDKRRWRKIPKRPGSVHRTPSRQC
# [7] = 2% solution topically to one eye
# [8] = topical, 8 weeks, values not significantly different from controls
molecule,measurement,setting,value
c1cc(-c2cnn3cc(-c4ccc(OCCN5CCCCC5)cc4)cnc23)ccn1 [Compound C],effect on MT7 stimulation of PGC-1α transcription,PGC-1α; 0.3μM co-treatment with MT7,blocked
O=C(O)c1ccc2c3c1cccc3c(=O)n1c3ccccc3nc21 [STO-609],effect on MT7-induced enhancement of AMPK phosphorylation,[1]; 1.0μM,inhibited
same,effect on pirenzepine-induced enhancement of AMPK phosphorylation,[1]; 1.0μM,inhibited
same,effect on pirenzepine-induced neurite outgrowth,[2]; cultured adult rat sensory neurons,dose-dependently inhibited
CN1[C@@H]2CC[C@H]1C[C@@H](OC(=O)C(CO)c1ccccc1)C2 (stereo partly drawn) [atropine],large fiber MNCV,[3]; 2% gel topically to one paw,not different to controls
same,paw thermal hypoalgesia (paw thermal latency),[3]; 2% gel topically to one paw,not different to controls
same,large fiber MNCV,[3]; [7],not different to controls
same,paw thermal hypoalgesia (paw thermal latency),[3]; [7],not different to controls
O=C1[O][Pt]2([NH][C@@H]3CCCC[C@H]3[NH]2)[O]C1=O [oxaliplatin],neurite outgrowth of sensory neurons exposed in vitro to the chemotherapeutic,[4],reduced neurite outgrowth
"CCN(CC)CC#CCOC(=O)C(O)(c1ccccc1)C1CCCCC1 (stereo not drawn) [oxybutynin, 4-dicthylaminobut-2-ynyl-2-cyclohexyl-2-hydroxy-2-phenyl-ethanoate]",total neurite outgrowth,[2],elevated
same,paw thermal hypoalgesia (thermal latency),"db/db mice; 2% in hydrogel to right paw 20 min/day, 5 days a week, 8 weeks, p<0.01 vs vehicle",reversed
same,time of treatment to reversal of thermal hypoalgesia,db/db mice; topical oxybutynin,4-8 weeks
same,reduction in density of IENF in paw skin,db/db mice; [8],attenuated
same,reduction in nerve fiber occupancy in the cornea,db/db mice; [8],attenuated
same,thermal hypoalgesia,[5]; 3 mg/kg s.c.,able to reverse
same,thermal hypoalgesia,[5]; 10 mg/kg s.c.,able to reverse
B1,AMPK phosphorylation,[1]; MT7,enhancement
same,transcription of PGC-1α,"PGC-1α; MT7 treatment, neurons from STZ-induced diabetic rats",activated
same,total neurite outgrowth,[2],enhanced; also recorded: dose-dependently elevated
same,nerve occupancy in the sub-basal nerve plexus (SBNP 1-5) of the cornea,adult Swiss Webster mice,increased significantly
same,nerve occupancy in the upper stromal (Stroma 1-10) region of the cornea,adult Swiss Webster mice,increased significantly
same,level of protection from gp120 treatment,[6],approximately 50%
same,concentrations at which it binds to an allosteric site on the M1 receptor,M1 receptor; allosteric site,low nanomolar
same,selectivity for M1 receptors over M2-M5,M1 receptor,"10,000 fold"
